Data: ChEMBL document CHEMBL3232789, “Design and synthesis of novel 2H-chromen-2-one derivatives bearing 1,2,3-triazole moiety as lead antimicrobials” (2014)

How the values were obtained:
[1] = system: Aspergillus niger; test: Antifungal activity against Aspergillus niger MTCC 282 assessed as growth inhibition at 100 ug/mL after 30 hrs by cup plate method; type: functional; details: MTCC 282, 30 h, read-out: DIZ
[2] = system: Aspergillus fumigatus; test: Antifungal activity against Aspergillus fumigatus MTCC 343 assessed as growth inhibition at 100 ug/mL after 30 hrs by cup plate method; type: functional; details: MTCC 343, 30 h, read-out: DIZ
[3] = system: Aspergillus flavus; test: Antifungal activity against Aspergillus flavus MTCC 277 assessed as growth inhibition at 100 ug/mL after 30 hrs by cup plate method; type: functional; details: MTCC 277, 30 h, read-out: DIZ
[4] = system: Candida albicans; test: Antifungal activity against Candida albicans MTCC 227 assessed as growth inhibition at 100 ug/mL after 30 hrs by cup plate method; type: functional; details: MTCC 227, 30 h, read-out: DIZ
[5] = system: Staphylococcus aureus; test: Antibacterial activity against Staphylococcus aureus MTCC 096 assessed as growth inhibition at 100 ug/mL after 14 hrs by cup plate method; type: functional; details: MTCC 096, 14 h, read-out: DIZ
[6] = system: Bacillus subtilis; test: Antibacterial activity against Bacillus subtilis MTCC 441 assessed as growth inhibition at 100 ug/mL after 14 hrs by cup plate method; type: functional; details: MTCC 441, 14 h, read-out: DIZ
[7] = system: Staphylococcus epidermidis; test: Antibacterial activity against Staphylococcus epidermidis MTCC 435 assessed as growth inhibition at 100 ug/mL after 14 hrs by cup plate method; type: functional; details: MTCC 435, 14 h, read-out: DIZ
[8] = system: Escherichia coli; test: Antibacterial activity against Escherichia coli MTCC 443 assessed as growth inhibition at 100 ug/mL after 14 hrs by cup plate method; type: functional; details: MTCC 443, 14 h, read-out: DIZ
[9] = system: Pseudomonas aeruginosa; test: Antibacterial activity against Pseudomonas aeruginosa MTCC 424 assessed as growth inhibition at 100 ug/mL after 14 hrs by cup plate method; type: functional; details: MTCC 424, 14 h, read-out: DIZ
[10] = system: Salmonella typhi; test: Antibacterial activity against Salmonella typhi MTCC 733 assessed as growth inhibition at 100 ug/mL after 14 hrs by cup plate method; type: functional, Salmonella enterica subsp. enterica serovar Typhi; details: Salmonella enterica, MTCC 733, 14 h; read-out: DIZ
[11] = system: Klebsiella pneumoniae; test: Antibacterial activity against Klebsiella pneumoniae MTCC 432 assessed as growth inhibition at 100 ug/mL after 14 hrs by cup plate method; type: functional; details: MTCC 432, 14 h, read-out: DIZ

SMILES | zone of inhibition at 100 µg/mL [1] [mm] | zone of inhibition at 100 µg/mL [2] [mm] | zone of inhibition at 100 µg/mL [3] [mm] | zone of inhibition at 100 µg/mL [4] [mm] | zone of inhibition at 100 µg/mL [5] [mm] | zone of inhibition at 100 µg/mL [6] [mm] | zone of inhibition at 100 µg/mL [7] [mm] | zone of inhibition at 100 µg/mL [8] [mm] | zone of inhibition at 100 µg/mL [9] [mm] | zone of inhibition at 100 µg/mL [10] [mm] | zone of inhibition at 100 µg/mL [11] [mm]
Cc1cc(=O)oc2cc(OCCCCCCn3cc(CN4C(=O)c5ccccc5C4=O)nn3)ccc12 | 13.9 | 18.5 | 15.2 | 14.9 | 12.9 | 12.8 | 12.6 | 13.4 | 12.8 | 12.4 | 12.9
Cc1cc(=O)oc2cc(OCc3cn(CCN4C(=O)c5ccccc5C4=O)nn3)ccc12 | 14.4 | 19.5 | 12.5 | 20.2 | 13 | 10.5 | 12.4 | 14.5 | 13 | 11.9 | 13.3
Cc1cc(=O)oc2cc(OCc3cn(CCCN4C(=O)c5ccccc5C4=O)nn3)ccc12 | 13.2 | 21.3 | 16.4 | 18.6 | 12.8 | 12.5 | 11.4 | 12.6 | 13.1 | 12.3 | 14.4
Cc1cc(=O)oc2cc(OCc3cn(CCCCN4C(=O)c5ccccc5C4=O)nn3)ccc12 | 13.5 | 18.9 | 14.8 | 16.6 | 12.6 | 11.6 | 12.8 | 12.4 | 14 | 12.5 | 11.6
Cc1cc(=O)oc2cc(OCc3cn(CCCCCN4C(=O)c5ccccc5C4=O)nn3)ccc12 | 12.3 | 23.4 | 14.5 | 16.9 | 12.5 | 13.6 | 12.6 | 12.5 | 12.9 | 12.7 | 12.6
Cc1cc(=O)oc2cc(OCCCCN=[N+]=[N-])ccc12 | 13.1 | 18.6 | 13.6 | 19.3 | 13.5 | 11.3 | 12.7 | 13 | 12.8 | 12.9 | 12.5
Cc1cc(=O)oc2cc(OCCCCCCN=[N+]=[N-])ccc12 | 13.8 | 19 | 16.4 | 18.7 | 15.7 | 12.5 | 13.5 | 14.3 | 13 | 12.4 | 14.5
